Assay results as given in PMC4846832, “Discovery of new MD2 inhibitor from chalcone derivatives with anti-inflammatory effects in LPS-induced acute lung injury” (Scientific Reports, 2016).

Molecular target: T1, MD2 (myeloid differentiation protein 2) (Homo sapiens, UniProt Q9Y6Y9)
T1 construct: gene LY96; recombinant human MD2 (rhMD2)
T1 sequence (Q9Y6Y9 19-160): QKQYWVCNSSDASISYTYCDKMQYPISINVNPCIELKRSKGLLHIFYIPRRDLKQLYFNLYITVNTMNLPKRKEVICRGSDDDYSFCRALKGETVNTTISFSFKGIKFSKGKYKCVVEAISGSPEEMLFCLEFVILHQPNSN
Experiment: SPR (ProteOn XPR36); supported by bis-ANS displacement and biotin-LPS competitive ELISA
Format: binding

Kd: 189 µM
SMILES: COc1ccc(C(=O)/C=C/c2cc(OC)c(OC)c(OC)c2)cc1OC [compound 20]
